By IC50 is commonly meant the midpoint of a concentration-inhibition curve.

Experiment [1] deals with 70S Ribosome. In words: Fluorescence polarization titration of probe binding affinity and kinetics. Further details: species or system E. coli. The conditions noted are these: for binding affinity compared with Probe 203 / binding kinetics compared with Probe 203: summarized in FIG. 39. (Polarisation of emitted light reports the rotation of a fluorescent probe.)
Experiment [2] deals with 70S Ribosome. In words: Fluorescence polarization competition with Probe 203 bound to ribosomes. It is filed as binding, E. coli. The conditions noted are these: for IC50: compound titrated 400 μM to 1.5 nM, ribosome 150-200% above Kd, read-out: IC50 for competing out Probe 203.

Consider “9-(4,4-difluoro-5,7-dimethyl-4-bora-3a,4a-diaza-s-indacene-3-propionyl)-amino-erythromycin [Probe 203]”, for which the “incubation time to reach binding equilibrium” value with 70S Ribosome [1] (fluorescence polarization read at various time points) is “greater than a half hour”. On 70S Ribosome [1] (fluorescence polarization, ribosome titration 1650 nM to 0.4 nM, buffer with 20% glycerol), the “affinity for ribosomes compared with values reported in the literature for the parent erythromycin” value is “slightly reduced affinity”.
Consider `CC[C@H]1OC(=O)[C@H](C)[C@@H](O[C@H]2C[C@@](C)(OC)[C@@H](O)[C@H](C)O2)[C@H](C)[C@@H](O[C@@H]2O[C@H](C)C[C@H](N(C)C)[C@H]2O)[C@](C)(O)C[C@@H](C)C(=O)[C@H](C)[C@@H](O)[C@]1(C)O` [Erythromycin], for which the IC50 in the experiment on 70S Ribosome [2] was found to be 0.03 µM.
`COc1ccc(C[C@H](N)C(=O)N[C@H]2[C@@H](O)[C@H](n3cnc4c(N(C)C)ncnc43)O[C@@H]2CO)cc1` [puromycin]: the “competition with Probe 203” value with 70S Ribosome [2] (antibiotic binding to more distant region of the ribosome) is reported as “did not show competition”.
For the molecule “9-benzyloxycarbonylamino-4″-Bodipy FL aminoethylcarbamate erythromycin [Probe 238]”, on 70S Ribosome [1] (fluorescence polarization), the “binding affinity compared with Probe 203” value is listed as “greater affinity” and the “binding kinetics compared with Probe 203” value was “even slower kinetics”.
In the case of `O=C(N[C@H](CO)[C@H](O)c1ccc([N+](=O)[O-])cc1)C(Cl)Cl` [Chloramphenicol], the IC50 in the experiment on 70S Ribosome [2] was 19 µM.
On to “4″-Bodipy FL-aminoethylcarbamate clarithromycin [Probe 242]”, for which, on 70S Ribosome [1] (fluorescence polarization), the “binding affinity compared with Probe 203” value was “greater affinity” and the “binding kinetics compared with Probe 203” value is given as “even slower kinetics”.
